The subject of one data set is IL-6. Put plainly: IL-1β-stimulated IL-6 production in A549 lung epithelial cells. It is filed as cell-based, Human. Here is the method:
Human A549 lung epithelial cells (American Type Culture Collection, Rockville, MD) were cultured in Kaighn's F-12K medium with penicillin-streptomycin (10 U/mL) and 10% heat-inactivated fetal bovine serum (all from Invitrogen, Grand Island, NY). A549 cells were plated at a density of 30,000 cells/well in 96-well plates and incubated overnight at 37°C and with 5% CO2. The cells were serum-starved by replacing the growth medium with serum-free Kaighn's F-12K medium with penicillin-streptomycin (10 U/mL) and, again, incubating overnight at 37°C and with 5% CO2. On the third day, the medium was replaced with fresh serum-free medium and the cells were incubated with or without compound (vehicle was DMSO at 0.1 % maximum concentration) for approximately 1 hour and then stimulated with 1 ng/mL recombinant human IL-1β (R&D Systems, Minneapolis, MN) for 20 hours at 37°C and with 5% CO2. Cell supernatants were collected for determination of IL-6 levels using MSD (Meso Scale Discovery, Gaithersburg, MD) 96-well Single Spot plates as per the manufacturer's instructions. Plates were read with an MSD Sector Imager 6000. […] Percent inhibition for each compound concentration, relative to these controls, was calculated using Excel (Microsoft, Redmond, WA). IC50 values were generated using GraFit 5.0 data analysis software (Erithacus Software Ltd., Surrey, UK).

The test system of data set [1] is TNFα. Put plainly: LPS-stimulated TNFα production in differentiated U937 cells. Type of data set: cell-based, Human. As to conditions: for TNFα % Inhibition: U937 cells. As for the experimental part:
Human U937 pre-monocytic cells (American Type Culture Collection, Rockville, MD) were cultured in RPMI 1640 with glutamine (2 mM), penicillin-streptomycin (10 U/mL) and 10% heat-inactivated fetal bovine serum (all from Invitrogen, Grand Island, NY). Cells were differentiated to a monocyte/macrophage phenotype with phorbol 12-myristate 13-acetate (Sigma-Aldrich, St. Louis, MO), 20 ng/mL, overnight. The cells were then centrifuged, the medium aspirated, the cells resuspended in an equal volume of fresh RPMI 1640 medium with glutamine and penicillin-streptomycin and fetal bovine serum as listed above, and incubated for 48 hours at 37°C and with 5% CO2. Following recovery, the cells were scraped, counted, and plated in accordance to the experimental design prior to stimulation with LPS, as described below.
U937 cells were differentiated and plated at a density of 200,000 cells/well in 96-well plates. Cells were incubated with or without compound (vehicle was DMSO at 1% maximum concentration) for approximately one hour and then stimulated with 100 ng/mL lipopolysaccharide (LPS), E. coli serotype 0111:B4 (Sigma-Aldrich, St. Louis, MO) for four hours at 37°C and with 5% CO2. Cell supernatants were collected for determination of TNFα levels using an in-house sandwich-type ELISA. Mouse anti-human TNFα monoclonal antibody (clone 28401.111) and biotinylated goat anti-human TNFα (R&D Systems, Minneapolis, MN) were used as the capture and detection antibodies, respectively. Streptavidin-horseradish peroxidase (HRP) (R&D Systems, Minneapolis, MN) and K-Blue Substrate/Red Stop (Neogen, Lexington, KY) were used as the detection system. Absorbance was measured at 650 nm. TNFα concentrations were interpolated from a human TNFα recombinant protein (R&D Systems, Minneapolis, MN) standard curve using a four parameter logistics model by Magellan 4.11 data analysis software (Tecan, Durham, NC). […] Vehicle was used to define the 0% inhibition control. Percent inhibition for each concentration of compound, relative to these controls, was calculated using Excel (Microsoft, Redmond, WA). IC50 values were generated using LabStats Fit Curve V4.R7.MO data analysis software (Pfizer Sandwich Laboratories, UK and Tessella Support Services plc, Abingdon UK).

Data set [2] can be described thus: Oral dosing in portal vein-cannulated rats, portal vein plasma. Type of data set: in vivo. Particulars: oral dosing 30 and 200 mg/kg, over a four-hour time period.
The nature of data set [3]: Oral absorption profile, time to Cmax in dogs. As to conditions: dog, in vivo.
A short description of data set [4]: Solubility and intrinsic dissolution. It is filed as physicochemical.
Data set [5] addresses full-length glucocorticoid (GR) protein. As to the kind of experiment: Glucocorticoid receptor fluorescence polarization ligand binding (GRFP) assay. As to conditions: additional result (footnote a). A general note: In fluorescence polarisation assays a small probe gives low polarisation when free and higher when bound to something large.
Text: The glucocorticoid receptor fluorescence polarization ligand binding (GRFP) assay is used to evaluate direct binding of testing compounds to full-length glucocorticoid (GR) protein. Reagents for this assay are purchased from Invitrogen in a test kit. A fluorescent labeled GR ligand is used as a fluorescent tracer and test compounds compete with the fluorescent tracer for GR binding. The change in polarization value in the presence of test compounds is due to binding of test compounds to GR and is used to determine IC50 and relative binding affinity of test compounds for GR.
The next data set can be described thus: in vivo. As to conditions: rat, po.
Data set [6] is described as follows: Oral absorption profile in rats.
A short description of data set [7]: Caco-2 cell monolayer A→B permeability assay. Particulars: human. For orientation: Caco-2 monolayers are a common model of the intestinal barrier.
Text: The Caco-2 cell monolayer is an in vitro tissue culture model of the intestinal epithelium. These cells are of human colonic origin and become polarized, fully differentiated enterocytes in 2-3 weeks. Once differentiated, these cells have tight junctions and express various biochemical processes such as active efflux transporters including P-glycoprotein (P-gp). With this model, it is possible to determine the apparent permeability (Papp) of a compound across the polarized Caco-2 cell monolayer.
An A→B Assay is performed with Caco-2 cell monolayers to determine compound Papp from A chamber to B chamber. This Papp is representative of luminal (gut) to serosal (blood) compound transport across intestinal epithelium that may be seen during intestinal absorption.
Data set [8] has as its system Mouse Collagen-induced arthritis (mCIA). Put plainly: Therapeutic mouse collagen-induced arthritis (mCIA) model. It is filed as in vivo, Male DBA/J mice. Particulars: Mus musculus, read-out: Therapeutic mCIA (ED80 dose). The source says:
Mouse Collagen-induced arthritis is a commonly used chronic, preclinical model of rheumatoid arthritis in which joint swelling and bone destruction occur following immunization with type II collagen. Reduction of disease incidence and severity has been shown previously to be predictive of disease-modification and signs and symptoms mitigation, respectively, in a clinical setting. In the therapeutic mCIA model, induction of disease incidence and severity was synchronized via LPS stimulation. Male DBA/J mice were immunized with 100 ug of bovine type II collagen (bCII) on day 0. […] Dosing of compounds was initiated in the therapeutic mode on day 34 and continued through day 49. Different treatments were compared by measuring the decrease in incidence (i.e., resolution of disease) and the decrease in severity of paw swelling over time.

Data set [9] has as its system TNFα. As to the kind of experiment: LPS-induced serum TNFα suppression, 28-day repeat dose mouse model. It is filed as in vivo, Swiss Webster female mice. As to conditions: Mus musculus, po, 672 h, read-out: TNFα Suppression (ED80 dose). As for the experimental part:
(§1) The compounds were weighed and suspended in a vehicle of 0.5% methylcellulose/0.025% tween 20 (Sigma-Aldrich, St. Louis, MO). Compound suspensions were homogenized using a Polytron PT-3100 tissue homogenizer to create a very fine suspension and were then sonicated for 10 minutes using a water bath sonicator. Aliquots of each suspension were made for daily dosing at 0.2 ml/dose. Swiss Webster female mice, 10-12 weeks old, 28-29 grams, (Taconic, Germantown, NY) were used in accordance with the guidelines of the Institutional Animal Care and Use Committee and in accordance with NIH guidelines on laboratory animal welfare. Mice were acclimated in the Pfizer animal facility for three to seven days prior to being utilized in a study. […] Each treatment group contained 5-10 mice. To establish a dosing regimen for the studies, a pilot pharmacodynamic time course experiment was conducted to quantify TNFα repression after a single ED80 dose.
(§2) Body weights were measured on the first and last day of each experiment. Blood samples were obtained after three weeks of dosing for a steady-state pharmacokinetic (PK) analysis. To assess compound effects on LPS-induced TNFα, all mice received an intraperitoneal injection of LPS (Salmonella typhosa, L-7895; Sigma-Aldrich, St. Louis,) 2.5 hr after the last dose on day 28. Mice were sacrificed 90 minutes after LPS administration. Serum samples were quantified for osteocalcin and TNFα using the multiplex assays (Linco Research, Inc, St. Charles, MO; Luminex 100, Austin, TX). Samples were diluted 1:20 and the assay was run according to manufacturer's instructions. The osteocalcin standard was purchased separately (Biomedical Technologies Inc., Stoughton, MA). Mice were fasted for 4 hours before serum was collected for TNFα, and osteocalcin levels. For each experiment, outliers were detected by calculating the number of standard deviations from the mean of the group. If the value being examined was more than 2.5 standard deviations from the mean, it was excluded from the rest of the calculations.
(§3) The individual mouse percent inhibition values were fit to a four-parameter logistic model using the dose mean for each group.
(§4) ED50 and ED80 values were obtained for the various endpoints using a four-parameter logistic fit. For compounds which were tested multiple times, ED50 and ED80 values were obtained using four-parameter logistic fits of the combined data from multiple experiments.

Data set [10] can be described thus: Serum osteocalcin suppression, 28-day repeat dose mouse model. Particulars: in vivo, po. As for the experimental part: as §1, §2, §3, §4
The next data set relates to osteocalcin. Described as above. As to conditions: in vivo, po. Here is the method:
as §1, §2, §3, §4

[11] abbreviates: A549 cells, Prednisolone (1 µM) = 100% inhibition control.
Where [12] appears, read: Prednisolone (1 µM) = 100% inhibition control.

Where a name gives a salt, the structure may show the parent alone.

Take `Cc1ncccc1CNC(=O)c1ccc2c(c1)CC[C@@H]1C[C@@](O)(CCC(F)(F)F)CC[C@@]21Cc1ccccc1` [Comparator A, (4βS,7S,8αR)-4β-benzyl-7-hydroxy-N-((2-methylpyridin-3-yl)methyl)-7-(3,3,3-trifluoropropyl)-4β,5,6,7,8,8α,9,10-octahydrophenanthrene-2-carboxamide, reference compound]: the “IL-6 % Inhibition” value in the data set with IL-6 (setting [11]) is 59.9%. The “TNFα % Inhibition” value in the data set with TNFα [1] (setting [12]) stood at 35%.

Take `Cc1ncccc1NC(=O)c1ccc2c(c1)CC[C@@H]1C[C@@](O)(C(F)(F)F)CC[C@@]21Cc1ccccc1` [Example 1 HCL salt, (4βS,7R,8αR)-4β-benzyl-7-hydroxy-N-(2-methylpyridin-3-yl)-7-(trifluoromethyl)-4β,5,6,7,8,8α,9,10-octahydrophenanthrene-2-carboxamide]: the “IL-6 % Inhibition” value in the data set on IL-6 (setting [11]) came to 76.9%. Besides, the “TNFα % Inhibition” value turned out to be 77.1% in the data set with TNFα [1] (setting [12]) and 62% in the data set on TNFα [1] (additional result (footnote a)).

Consider `Cc1ncccc1NC(=O)c1ccc2c(c1)CC[C@@H]1C[C@@](OP(=O)(O)O)(C(F)(F)F)CC[C@@]21Cc1ccccc1` [Example 2, (2R,4αS,10αR)-4α-benzyl-7-((2-methylpyridin-3-yl)carbamoyl)-2-(trifluoromethyl)-1,2,3,4,4α,9,10,10α-octahydrophenanthren-2-yl dihydrogen phosphate], for which, in [2], the “detection in portal vein plasma samples” value is given as “detection of Example 1, but not Example 2”. Besides, in data set [3], the time to peak (Tmax) (usually the time at which the peak concentration occurs) turned out to be 48 min. Also, the “solubility and intrinsic dissolution” value in [4] is “enhanced solubility and intrinsic dissolution”. The IC50 – broadly, the concentration needed to halve the response being measured – in [5] was 42 nM; in the data set on IL-6 (Homo sapiens, A549 cells, additional result (footnote a)) it was 17 nM. In the data set on IL-6 (A549 cells, additional result (footnote a)), the “IL-6 % Inhibition” value stood at 80%. Further, the inhibition (as a rule, the percentage by which the read-out fell short of the control) in the data set with IL-6 (Homo sapiens, A549) amounted to 60.2%. The “Example 1 in apical and basolateral compartments” value in the data set on Caco-2 cell monolayer was “significant elevation of Example 1 in both the apical and basolateral compartments”. The AUC (usually concentration integrated over time) in “in vivo” came out at 1610 ng·h/mL. For the same molecule, in data set [6], the “bioavailability F” value amounted to 59%. The highest concentration (Cmax) – broadly, the highest concentration seen after dosing – in data set [6] (oral) was 0.59 µg/mL. In addition, the apical-to-basolateral permeability (Papp A→B) (as a rule, the apparent permeability from the apical to the basolateral side of a cell layer) in data set [7] worked out at 1.15 ×10⁻⁶ cm/s.

For the molecule `C[C@]12C=CC(=O)C=C1CC[C@@H]1[C@@H]2[C@@H](O)C[C@@]2(C)[C@H]1CC[C@]2(O)C(=O)CO` [Prednisolone, reference compound], the inhibition at 1 µM in the data set with TNFα [1] (Homo sapiens, U-937, read-out: TNFα % Inhibition) is 100%. Moreover, the ED80 was 5.5 mg/kg in data set [8] and 2.1 mg/kg in the data set with TNFα [9]. In addition, in data set [10], the 50% effective dose (ED50) (as a rule, the dose at which the effect has come halfway, by size or by number of responders) was 1 mg/kg. Also, in the data set on osteocalcin, the “Osteocalcin Suppression (ED80 dose)” value is 6.80 mg/kg.

The values above are taken from patent publication EP2114888B1, “TRICYCLIC COMPOUNDS AND THEIR USE AS GLUCOCORTICOID RECEPTOR MODULATORS” (priority 2007, dated 2008).
